One block for each compound: values may come before it.
What was measured:
[1] = test system: C57/B female mice; assay: Lifespan: amount of alive animals depending on age, Dimebon in drinking water; type: in vivo; details: for Amount of alive animals: 3 mg/kg daily in water
Procedure: (§1) Experiments were conducted with C57/B female mice, starting from their age of 12 months. Mice were kept on cells, 10 animals per a cell. Both control and experimental group included 50 animals in each group. […] The day-night cycle was 12 hours.
(§2) Prior to the experiment, daily and weekly water consumption by the animals in one cell was measured. Dimebon was added in water in such amount that each animal would consume 3 mg/kg of Dimebon per day in average. Bottles with water containing Dimebon were replaced every 7 days. Animals in the control group were receiving pure water.
(§3) Prior to the experiment, all the animals were weighed, and an average weight was determined in every group, every cell, as well as the weight of all animals in every cell. The condition of skin, hair, and eyes were also determined by visual inspection. […] Evaluation of all these parameters was conducted on a monthly basis.
(§4) Statistics was calculated using Student T-test and ‘ Chi-squared’ criteria.
Evaluation of the parameter of the length of life was conducted employing methods used in demography. This parameter was a probability of death in every age group.

[2] = test system: C57/B female mice; assay: Disturbances in skin-hair integument (alopecia) depending on age and Dimebon consumption; type: in vivo; details: for % of animals that have alopecia: 3 mg/kg daily in water
Procedure: as §1, §2, §3, §4

[3] = Dynamics in weight of animals depending on age and Dimebon consumption; type: in vivo, mice; details: for average weight of animals: 3 mg/kg daily in water
Procedure: as §1, §2, §3, §4

[4] = test system: ion channels associated with glutamate receptors; assay: Glutamate-induced uptake of 45Ca into rat brain synaptosomes (calcium-blocking properties); type: biochemical; details: glutamate-induced 45Ca uptake, K(43/21); compound 5 μM; 5 min at 30° C.
Procedure: Evaluation of the calcium-blocking properties of the compounds was conducted with P2-fraction of synaptosomes, which were isolated from the brain of newborn (8-11 days) rats according to the protocol described in [Bachurin et al. Neuroprotective and cognition enhancing properties of MK-801 flexible analogs. Structure-activity relationships.//Ann. N.Y. Acad. Sci., 2001, v. 939, pp. 219-235]. In this test, the ability of the compounds to inhibit a specific uptake of calcium ions via ion channels associated with glutamate receptors was determined.
Synaptosomes were placed into the incubation buffer A (132 mM NaCl, 5 mM KCl, 5 mM HEPES) and were kept at 0° C. during the entire experiment. Aliquots of synaptosomes (50 μl) were placed in the media A, containing investigated compounds and a preparation of the radiolabeled calcium, ^45Ca. The calcium uptake was stimulated by the introduction into the media of the 20 μl of the 10 mM solution of glutamate. After a 5 min incubation at 30° C. the reaction was interrupted by a filtration through GF/B filters, which were then triple washed with the cold buffer B (145 mM KCl, 10 mM tris, 5 mM trilon B). Then, filters were subjects for the detection of the radiolabeled calcium. The measurement was conducted using a scintillation counter ‘SL-4000 Intertechnic”. The initial screening was conducted with a concentration of each compound of 5 μM. A specific calcium uptake was calculated using the following equation
where: • Ca1 is a calcium uptake in a control experiment (no glutamate or test compound added); • Ca2 is a calcium uptake in the presence of glutamate only (Glutamate Induced Calcium Uptake—GICU); • Ca3 is a calcium uptake in the presence of a test compound only (no glutamate added); Ca4 is a calcium uptake in the presence of both glutamate and a test compound.

[5] = test system: C57/B female mice; assay: Vision disturbances (development of age-related cataract) depending on age and Dimebon consumption; type: in vivo; details: for amount of animals that have cataract: 3 mg/kg daily in water
Procedure: as §1, §2, §3, §4

- % Ca to control [4]: 30.0 ± 3.5%
Compound: CN1CCc2[nH]c3ccc(Br)cc3c2C1.Cl [Compound 9, 2-methyl-8-bromo-2,3,4,5-tetrahydro-1H-pyrido(4,3-b)indol hydrochloride]

- % Ca to control [4]: 35.5 ± 2.5%
Compound: CN1CCc2[nH]c3ccccc3c2C1 [Compound 7, 2-methyl-2,3,4,5-tetrahydro-1H-pyrido(4,3-b)indol]

- % Ca to control [4]: 28.5 ± 2.5%
Compound: c1ccc(CN2CCc3[nH]c4ccccc4c3C2)cc1 [Compound 3, 2-benzyl-2,3,4,5-tetrahydro-1H-pyrido(4,3-b)indol]

- % Ca to control [4]: 36.5 ± 0.5%
Compound: CCN1CCc2[nH]c3ccccc3c2C1 [Compound 2, 2-ethyl-2,3,4,5-tetrahydro-1H-pyrido(4,3-b)indol]

The next lines start with the compound.

Compound: Cc1ccc2c(c1)c1c(n2CCc2ccc(C)nc2)CCN(C)C1.Cl.Cl [Compound 6, 2,8-dimethyl-5-(2-(6-methyl-3-pyridyl)-ethyl)-2,3,4,5-tetrahydro-1H-pyrido(4,3-b)indol dihydrochloride]
- Amount of alive animals ([1]; age 12 months (start), 50 animals per group): 50
- Amount of alive animals ([1]; age 13 months): 50
- Amount of alive animals ([1]; age 14 months): 49
- Amount of alive animals ([1]; age 15 months): 48
- Amount of alive animals ([1]; age 16 months): 47
- Amount of alive animals ([1]; age 17 months): 47
- Amount of alive animals ([1]; age 18 months): 42
- Amount of alive animals ([1]; age 19 months): 39
- Amount of alive animals ([1]; age 20 months): 35
- Amount of alive animals ([1]; age 21 months): 32
- Amount of alive animals ([1]; age 22 months): 28
- Amount of alive animals ([1]; age 23 months): 25
- Amount of alive animals ([1]; age 24 months): 18
- Amount of alive animals ([1]; age 25 months): 11
- probability of death versus control group ([1]; all age groups, 3 mg/kg daily, significant (P<0.05) at 20-23 months): lower
- % of animals that have alopecia ([2]; age 12 months (start)): 0%
- % of animals that have alopecia ([2]; age 13 months): 0%
- % of animals that have alopecia ([2]; age 14 months): 2%
- % of animals that have alopecia ([2]; age 15 months): 6%
- % of animals that have alopecia ([2]; age 16 months): 10%
- % of animals that have alopecia ([2]; age 17 months): 20%
- % of animals that have alopecia ([2]; age 18 months): 12%
- % of animals that have alopecia ([2]; age 19 months): 14%
- % of animals that have alopecia ([2]; age 20 months): 34%
- % of animals that have alopecia ([2]; age 21 months): 35%
- development of non-fatal pathologies, such as loss of vision and alopecia ([2]; old animals fed Dimebon 3 mg/kg daily, alopecia difference 13th-21st month P<0.05): slowing of the development
- age-related weight depletion ([3]; 3 mg/kg daily, depletion only in 23 month old animals, variation versus control not significant (P>0.05)): No weight depletion was observed
- average weight of animals ([3]; age 12 months (start)): 24.7 g
- average weight of animals ([3]; age 13 months): 24.7 g
- average weight of animals ([3]; age 14 months): 24.7 g
- average weight of animals ([3]; age 15 months): 26 g
- average weight of animals ([3]; age 16 months): 25.5 g
- average weight of animals ([3]; age 17 months): 24.7 g
- average weight of animals ([3]; age 18 months): 25.5 g
- average weight of animals ([3]; age 19 months): 26 g
- average weight of animals ([3]; age 20 months): 26 g
- average weight of animals ([3]; age 21 months): 25.6 g
- average weight of animals ([3]; age 22 months): 25.1 g
- average weight of animals ([3]; age 23 months): 24.7 g
- average weight of animals ([3]; age 24 months): 24 g
- average weight of animals ([3]; age 25 months): 23.7 g
- % Ca to control [4]: 48.5 ± 2.5%
- amount of animals that had cataract versus control group ([5]; 3 mg/kg daily, P<0.05 for 13 to 20 months old mice): significantly less
- amount of animals that have cataract ([5]; age 12 months (start)): 0%
- amount of animals that have cataract ([5]; age 13 months): 0%
- amount of animals that have cataract ([5]; age 14 months): 0%
- amount of animals that have cataract ([5]; age 15 months): 4%
- amount of animals that have cataract ([5]; age 16 months): 6%
- amount of animals that have cataract ([5]; age 17 months): 6%
- amount of animals that have cataract ([5]; age 18 months): 10%
- amount of animals that have cataract ([5]; age 19 months): 13%
- amount of animals that have cataract ([5]; age 20 months): 17%
- amount of animals that have cataract ([5]; age 21 months): 25%

Compound: 2-dimethyl-2,3,4,5-tetrahydro-1H-pyrido(4,3-b)indol methyl iodide [Compound 8]
- % Ca to control [4]: 18.0 ± 2.5%

Compound: Cc1ccc2c(c1)c1c(n2Cc2ccccc2)CCN(C)C1.Cl.Cl [Compound 4, 2,8-dimethyl-5-benzyl-2,3,4,5-tetrahydro-1H-pyrido(4,3-b)indol dihydrochloride]
- % Ca to control [4]: 22.5 ± 3.5%

Compound: 2-methyl-5-(2-(6-methyl-3-pyridyl)-ethyl)-2,3,4,5-tetrahydro-1H-pyrido(4,3-b)indol sesquisulfate monohydrate [Compound 5]
- % Ca to control [4]: 33.5 ± 1.5%

Reference: patent publication US20080234310A1, “Methods and Compositions for Slowing Aging” (priority 2003, published 2008)
